Measured values reported in publication PMC6409085, “Three odorant-binding proteins are involved in the behavioral response of Sogatella furcifera to rice plant volatiles” (PeerJ, 2019).

Key:
Experiment in all cases: biochemical
Format in all cases: binding
SfurOBP3 = SfurOBP3 (Sogatella furcifera, UniProt V5T818); settings: SfurOBP3; protein and 1-NPN both 2.0 µM; competitor 2-20 µM; read-out: IC50
Protocol: (§1) Thirty-six rice odorants ([He et al., 2014]; [Wang et al., 2017]) and 1-N-phenyl-naphthylamine (1-NPN) were purchased from Sigma-Aldrich (St Louis, MO, USA). These odorants and 1-NPN were dissolved in high-performance liquid chromatography (HPLC) purify grade methanol for 1.0 mM as work solution.
(§2) Fluorescence competitive binding assays were performed on Tecan Spark 10M (Tecan Group Ltd., Männedorf, Switzerland) with the F96 Black ELIAS Plate (Sangon) ([Khuhro et al., 2017]; [Liu et al., 2017]). The solutions were excited at 337 nm and emission spectra were recorded between 390 and 490 nm. First, to test the binding constants of 1-NPN to the SfurOBPs, a 2.0 µM solution of protein in 50 mM Tris-HCl (pH = 7.4) was titrated with 1 mM 1-NPN to achieve virous concentrations. Next, the competitive binding of each odorant was measured using the 1-NPN as fluorescent reporter and odorant as competitor. The concentrations of protein and 1-NPN were both 2.0 µM, the odorant added after protein and 1-NPN added into the well of ELIAS Plate for 2 min. The final concentrations of each competitor were 2, 4, 6, 8, 10, 12, 14, 16, 18 and 20 µM. After 2 min of odorant added, the fluorescence intensity was measured and recorded. The volume of mixed solution in each well was maintained at 250 µL. Each interaction was performed in triplicates.
(§3) GraphPad Prism 7.0 software (GraphPad Software, Inc., La Jolla, CA, USA) was used to calculated and generated the binding constants (K1−NPN) of 1-NPN to SfurOBPs and relative Scatchard plots ([Ban et al., 2003]; [Li et al., 2016]). Dissociation constant (Ki) of each odorant to SfurOBP was computed from the corresponding IC50 value (the half maximal inhibitory concentration), using the following equation: Ki=[IC50]/(1 + [1-NPN]/K1−NPN), where [1-NPN] is the free concentration of 1-NPN and K1−NPN is the dissociation constant of the complex protein/1-NPN.

SfurOBP11 = SfurOBP11 (Sogatella furcifera, UniProt V5T6E3); settings: SfurOBP11; protein and 1-NPN both 2.0 µM; competitor 2-20 µM; read-out: IC50
Sequence of SfurOBP11 (V5T6E3 entry or part of it): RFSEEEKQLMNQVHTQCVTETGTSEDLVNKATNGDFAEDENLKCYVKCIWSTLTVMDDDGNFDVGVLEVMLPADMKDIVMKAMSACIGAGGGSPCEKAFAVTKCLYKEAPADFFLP
Protocol: as §1, §2, §3

SfurOBP1 = SfurOBP1 (Sogatella furcifera, UniProt V5T8N5); settings: SfurOBP1; protein and 1-NPN both 2.0 µM; competitor 2-20 µM; read-out: IC50
Sequence of SfurOBP1 (V5T8N5 entry or part of it): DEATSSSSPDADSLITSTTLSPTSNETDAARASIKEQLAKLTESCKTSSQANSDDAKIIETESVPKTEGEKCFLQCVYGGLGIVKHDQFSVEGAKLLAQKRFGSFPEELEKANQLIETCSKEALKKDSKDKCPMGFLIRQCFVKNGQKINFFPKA
Protocol: as §1, §2, §3

SfurOBP2 = SfurOBP2 (Sogatella furcifera, UniProt V5T759); settings: SfurOBP2; protein and 1-NPN both 2.0 µM; competitor 2-20 µM; read-out: IC50
Sequence of SfurOBP2 (V5T759 entry or part of it): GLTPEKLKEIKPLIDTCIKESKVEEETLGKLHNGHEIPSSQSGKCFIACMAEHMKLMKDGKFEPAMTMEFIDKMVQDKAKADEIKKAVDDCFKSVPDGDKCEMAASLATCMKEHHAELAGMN
Protocol: as §1, §2, §3

Sequence of SfurOBP3 (V5T818 entry or part of it): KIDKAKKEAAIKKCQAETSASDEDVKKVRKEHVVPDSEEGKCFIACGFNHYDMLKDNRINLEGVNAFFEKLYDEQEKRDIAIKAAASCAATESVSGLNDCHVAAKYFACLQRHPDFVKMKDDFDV

## Cc1cc(C(C)(C)C)c(O)c(C(C)(C)C)c1 [2,6-di-tert-butyl-4-methylphenol]
SfurOBP3
  IC50: > 20 µM
SfurOBP11
  IC50: 18 µM
SfurOBP1
  IC50: > 20 µM
SfurOBP2
  IC50: > 20 µM

## CC(C)COC(=O)CCCCC(=O)OCC(C)C [diisobutyl adipate]
SfurOBP3
  IC50: > 20 µM
SfurOBP11
  IC50: > 20 µM
SfurOBP1
  IC50: > 20 µM
SfurOBP2
  IC50: > 20 µM
